In PubChem BioAssay AID330 (DTP/NCI, 2004):
Several values for one entry are separate records, joined by “and”; a condition that tells them apart may be missing. Equal values may be shown once. Inconclusive results and toxic doses are left out.

System: P388 leukemia ip, CD2F1 mice, survival T/C
Assay: NCI In Vivo Anticancer Drug Screen. Data for tumor model P388 Leukemia (intraperitoneal) in CD2F1 (CDF1) mice
Settings: endpoint: median survival time, higher = longer survival
In short: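 Mice carrying the transplanted tumor received test compound or vehicle. Survival was recorded in each group, and the value is the treated-group measurement divided by that of the vehicle-treated control group.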

[1] = dose: 100.0 mg/kg/injection, schedule: Q04DX003 (ip), vehicle: saline with Tween-80
[2] = dose: 200.0 mg/kg/injection, schedule: Q04DX003 (ip), vehicle: saline with Tween-80
[3] = dose: 400.0 mg/kg/injection, schedule: Q04DX003 (ip), vehicle: saline with Tween-80
[4] = dose: 50.0 mg/kg/injection, schedule: Q01DX009 (ip), vehicle: saline with Tween-80
[5] = dose: 100.0 mg/kg/injection, schedule: Q01DX009 (ip), vehicle: saline with Tween-80
[6] = dose: 200.0 mg/kg/injection, schedule: Q01DX009 (ip), vehicle: saline with Tween-80

O=C1C=CC(=CC=C2C=CN(CCCCCCCCCCCO)C=C2)C=C1
T/C (dose: 1.56 mg/kg/injection, schedule: Q01DX005 (ip), vehicle: saline with Tween-80): 111 % of control | T/C (dose: 3.12 mg/kg/injection, schedule: Q01DX005 (ip), vehicle: saline with Tween-80): 114 % of control and 118 % of control | T/C (dose: 6.25 mg/kg/injection, schedule: Q01DX005 (ip), vehicle: saline with Tween-80): 121 % of control | T/C (dose: 7.5 mg/kg/injection, schedule: Q01DX005 (ip), vehicle: saline with Tween-80): 109 % of control | T/C (dose: 12.5 mg/kg/injection, schedule: Q01DX005 (ip), vehicle: saline with Tween-80): 118 % of control and 121 % of control | T/C (dose: 15.0 mg/kg/injection, schedule: Q01DX005 (ip), vehicle: saline with Tween-80): 109 % of control and 111 % of control | T/C (dose: 30.0 mg/kg/injection, schedule: Q01DX005 (ip), vehicle: saline with Tween-80): 118 % of control | T/C (dose: 50.0 mg/kg/injection, schedule: Q01DX005 (ip), vehicle: saline with Tween-80): 100 % of control

CCO/C=C1\SC(=S)N(c2ccco2)C1=O
T/C [1]: 118 % of control | T/C [2]: 118 % of control | T/C [3]: 104 % of control

Oc1ccc(N=Cc2ccccn2)cc1
T/C (dose: 25.0 mg/kg/injection, schedule: Q01DX009 (ip), vehicle: saline with Tween-80): 94 % of control | T/C [4]: 105 % of control and 88 % of control | T/C [5]: 107 % of control and 88 % of control | T/C [6]: 103 % of control

c1ccc2c3c([nH]c2c1)[C@@H]1CCN2CCC[C@@H]2N1CC3
T/C (dose: 5.75 mg/kg/injection, schedule: Q01DX005 (ip), vehicle: Klucel (hydroxypropylcellulose) (HPC)): 101 % of control | T/C (dose: 11.5 mg/kg/injection, schedule: Q01DX005 (ip), vehicle: Klucel (hydroxypropylcellulose) (HPC)): 100 % of control | T/C (dose: 23.0 mg/kg/injection, schedule: Q01DX005 (ip), vehicle: Klucel (hydroxypropylcellulose) (HPC)): 95 % of control | T/C (dose: 46.0 mg/kg/injection, schedule: Q01DX005 (ip), vehicle: Klucel (hydroxypropylcellulose) (HPC)): 93 % of control

CCO/C=C1\SC(=S)N(c2ccc(C(=O)O)cc2)C1=O
T/C (dose: 4.4 mg/kg/injection, schedule: Q01DX009 (ip), vehicle: saline with Tween-80): 104 % of control | T/C (dose: 6.6 mg/kg/injection, schedule: Q01DX009 (ip), vehicle: saline with Tween-80): 109 % of control | T/C (dose: 10.0 mg/kg/injection, schedule: Q01DX009 (ip), vehicle: saline with Tween-80): 109 % of control | T/C (dose: 15.0 mg/kg/injection, schedule: Q01DX009 (ip), vehicle: saline with Tween-80): 109 % of control | T/C [1]: 118 % of control | T/C [2]: 113 % of control

O=C(c1ccccc1)C1CCCN(c2ccccc2)S1(=O)=O (stereo not given)
T/C [1]: 98 % of control | T/C [2]: 104 % of control | T/C [3]: 94 % of control

O=S1(c2ccccc2)=NC(=S)Nc2ccccc21 (stereo not given)
T/C [4]: 111 % of control | T/C [5]: 102 % of control | T/C [6]: 98 % of control

Cc1cccc(C)c1NC(=O)C(Cl)(Cl)Sc1ccc(Cl)cc1Cl
T/C [4]: 100 % of control | T/C [5]: 104 % of control | T/C [6]: 109 % of control

CCOC(=O)c1cnc2cc(Cl)ccc2c1N=[N+]=[N-]
T/C (dose: 60.0 mg/kg/injection, schedule: Q01DX005 (ip), vehicle: saline with Tween-80): 91 % of control | T/C (dose: 120.0 mg/kg/injection, schedule: Q01DX005 (ip), vehicle: saline with Tween-80): 100 % of control | T/C (dose: 240.0 mg/kg/injection, schedule: Q01DX005 (ip), vehicle: saline with Tween-80): 99 % of control

CCCCCCCCCCCC(=O)N(CCOC(=O)c1ccccc1)CCOC(=O)c1ccccc1
T/C [4]: 101 % of control | T/C [5]: 93 % of control | T/C [6]: 107 % of control

CCCCCCCCCCNCCSSCCNC(C)=O
T/C (dose: 1.56 mg/kg/injection, schedule: Q01DX005 (ip), vehicle: Klucel (hydroxypropylcellulose) (HPC)): 103 % of control | T/C (dose: 3.12 mg/kg/injection, schedule: Q01DX005 (ip), vehicle: Klucel (hydroxypropylcellulose) (HPC)): 100 % of control | T/C (dose: 6.25 mg/kg/injection, schedule: Q01DX005 (ip), vehicle: Klucel (hydroxypropylcellulose) (HPC)): 105 % of control | T/C (dose: 12.5 mg/kg/injection, schedule: Q01DX005 (ip), vehicle: Klucel (hydroxypropylcellulose) (HPC)): 104 % of control | T/C (dose: 25.0 mg/kg/injection, schedule: Q01DX005 (ip), vehicle: Klucel (hydroxypropylcellulose) (HPC)): 102 % of control | T/C (dose: 50.0 mg/kg/injection, schedule: Q01DX005 (ip), vehicle: Klucel (hydroxypropylcellulose) (HPC)): 98 % of control and 103 % of control

CC(/C=C/C=C/C=C/C=C/C=C/C(O)=C1/C(=O)C(CCC(=O)O)N(C)C1=O)=C\C(C)C(OC1CC(O)C(O)C(C)O1)C(C)C (stereo not given)
T/C (dose: 1.0 mg/kg/injection, schedule: Q01DX005 (ip), vehicle: water): 121 % of control | T/C (dose: 2.0 mg/kg/injection, schedule: Q01DX005 (ip), vehicle: water): 165 % of control | T/C (dose: 4.0 mg/kg/injection, schedule: Q01DX005 (ip), vehicle: water): 112 % of control and 115 % of control | T/C (dose: 8.0 mg/kg/injection, schedule: Q01DX005 (ip), vehicle: water): 158 % of control and 163 % of control
